Common to all, as to assay type: cell-based
The test system of experiment [1] is E. coli. In words: MIC of peptide alone or with 20% of antibiotic MIC, procedure of Example 1. Particulars: for MIC Peptide alone / MIC Peptide and Ampicillin / MIC Peptide with Aztreonam / MIC Peptide with Bacitracin / MIC Peptide and Benzyl penicillin: E. coli; for MIC Peptide and Ampicillin: peptide plus 20% of the MIC of ampicillin; for MIC Peptide and Ampicillin / MIC Peptide and Benzyl penicillin: Table 4; for MIC Peptide with Aztreonam: peptide plus 20% of the MIC of aztreonam, Table 5; for MIC Peptide with Bacitracin: peptide plus 20% of the MIC of bacitracin, Table 2; for MIC Peptide and Benzyl penicillin: peptide plus 20% of the MIC of benzyl penicillin; for MIC of antibiotic: antibiotic alone against E. coli. The protocol: (§1) S. aureus organisms are grown to mid log phase, and then diluted to 10^3 organisms/ml in 1/2 strength trypticase soy broth. After the incubation of the organisms, the minimal inhibitory concentration in ug/ml for Z-52 MG-2(amide-terminated), PGLa, CPF Z-50, A-97, Magainin II, and Z-74 peptides, against S. aureus was measured when each peptide was added alone to the organisms. "MG-2 (amide)" is amide-terminated Magainin II, and "Magainin II" is carboxy-terminated Magainin II. A-97 peptide is of the following structure:
(§2) The minimal inhibitory concentration (MIC) for each peptide was then measured when 20% of the minimal inhibitory concentration of bacitracin, tobramycin or gentamicin, respecitvely, is added to the organisms along with the peptide. The gentamicin employed is a mixture of Gentamicin C1, Gentamicin C1a, and Gentamicin C2. […] CPF Z-50 peptide has structure number (8) of the CPF peptides hereinabove described. Z-52 peptide is of the structure (ALSK)6 NH2. The minimal inhibitory concentrations are given below in Table I.
E. coli organisms were incubated according to the procedure described in Example 1. After the incubation, the minimal inhibitory concentrations against E. coli of each of the peptides described in Example 1 alone, as well as of each peptide when employed in combination with 20% of the MIC for bactracin, were then measured.
(§3) In this example, E. coli or P. aeruginosa organisms were incubated according to the procedure described in Example 1. After, the incubation, the minimal inhibitory concentrations of the peptides hereinabove described alone, as well as the peptides in combination with 20% of the minimal inhibitory concentrations (MIC) of benzyl penicillin or ampicillin, were then measured. […]
(§4) E. coli and P. aeruoginosa organisms were incubated according to the procedure described in Example 1. After the incubation, the minimal inhibitory concentrations of the peptides hereinabove described alone, as well as the peptides in combination with 20% of the MIC of the monobactam antibiotic aztreonam, were then measured. The MIC of aztreonam against E. coli is a 2 μg/ml, and against P. aeruginosa is 8 μg/ml.

Experiment [2] deals with P. aeruginosa. In words: MIC of peptide with or without 10 μg/ml erythromycin, Example 6. As to the method:
(§5) For each of the organisms listed in Table 6 below, 10^5 organisms were mid-log inoculated into 200 ml of one-half strength trypticase soy broth. The organisms were incubated for 15 hrs. at 37° C. […] The minimal inhibitory concentrations in μg/ml are given below in Table 6. […] K. pneumoniae, P. aeruginosa, and E. coli are Gram-negative bacteria.

Experiment [3] has as its system E. coli. The description is as above. As to the method:
as §5

The subject of the next experiment is K. pneumoniae. The description is as above. As to the method: as §5
Experiment [4] has as its system S. aureus. Description: Erythromycin and peptide against S. aureus, Example 6. The protocol:
For each of the organisms listed in Table 6 below, 10^5 organisms were mid-log inoculated into 200 ml of one-half strength trypticase soy broth. The organisms were incubated for 15 hrs. at 37° C. […] K. pneumoniae, P. aeruginosa, and E. coli are Gram-negative bacteria.

Experiment [5] has as its system S. aureus. In words: MIC of peptide alone or with 20% of antibiotic MIC, procedure of Example 1. Particulars: for MIC Peptide alone / MIC With Added Antibiotic Bacitracin / MIC With Added Antibiotic Gentamicin / MIC With Added Antibiotic Tobramycin: S. aureus; for MIC Peptide alone: Table I; for MIC With Added Antibiotic Bacitracin: peptide plus 20% of the MIC of bacitracin; for MIC With Added Antibiotic Gentamicin: peptide plus 20% of the MIC of gentamicin; for MIC With Added Antibiotic Tobramycin: peptide plus 20% of the MIC of tobramycin; for MIC of antibiotic: antibiotic alone against S. aureus. The protocol: as §1, §2

Experiment [6] has as its system P. aeruginosa. The experiment is described as above. Particulars: for MIC Peptide with Aztreonam: peptide plus 20% of the MIC of aztreonam, Table 5; for MIC Peptide with Bacitracin: peptide plus 20% of the MIC of bacitracin, Table 3; for MIC of antibiotic: antibiotic alone against P. aeruginosa. The protocol: as §1, §2
In this example, P. aeruginosa organisms were incubated according to the procedure described in Example 1. After the incubation, the minimal inhibitory concentrations of the peptides hereinabove described alone, as well as the peptides in combination with 20% of the MIC of bacitracin, were then measured.
as §3, §4

[7] abbreviates: peptide with erythromycin 10 μg/ml (+).
[8] abbreviates: peptide, no erythromycin added (-).
[9] abbreviates: P. aeruginosa, Example 3, Table 3.
Where [10] appears, read: P. aeruginosa, Example 5, Table 5.

No end group written: not given here.

“GIGKFLHSAKKFGKAFVGEIMNS-NH2 [MG-2 amide]”: the “MIC Peptide alone” value in the experiment on E. coli [1] (Example 2, Table 2) turned out to be 16 µg/mL; in the experiment with E. coli [1] (Example 4, Table 4), 64 µg/mL; in the experiment with E. coli [1] (Example 5, Table 5) it was 64 µg/mL; with S. aureus [5], 256 µg/mL; with P. aeruginosa [6] (setting [9]), 128 µg/mL; in the experiment with P. aeruginosa [6] (P. aeruginosa, Example 4, Table 4) it was 256 µg/mL. In the experiment with P. aeruginosa [6] (setting [10]), the “MIC Peptide alone” value is 128 µg/mL. Besides, the “MIC Peptide and Ampicillin” value stood at 8 µg/mL in the experiment on E. coli [1] and 128 µg/mL in the experiment with P. aeruginosa [6] (P. aeruginosa, peptide plus 20% of the MIC of ampicillin, Table 4). Moreover, the “MIC Peptide with Aztreonam” value with E. coli [1] was found to be 32 µg/mL; in the experiment on P. aeruginosa [6] (P. aeruginosa), 64 µg/mL. In addition, the “MIC Peptide with Bacitracin” value was found to be 4 µg/mL in the experiment with E. coli [1] and 8 µg/mL in the experiment on P. aeruginosa [6] (P. aeruginosa). For the same compound, the “MIC Peptide and Benzyl penicillin” value in the experiment on E. coli [1] was determined as 32 µg/mL; in the experiment on P. aeruginosa [6] (P. aeruginosa, peptide plus 20% of the MIC of benzyl penicillin, Table 4), 128 µg/mL. The “Minimal Inhibitory Concentration” value in the experiment with P. aeruginosa [2] (setting [7]) was under 5.0 µg/mL; in the experiment with P. aeruginosa [2] (setting [8]), 50 to 100 µg/mL; with E. coli [3] (setting [7]) it was 0.5 µg/mL; in the experiment on E. coli [3] (setting [8]), 5 µg/mL; in the experiment with K. pneumoniae (setting [7]), under 0.5 µg/mL; in the experiment with K. pneumoniae (setting [8]), 5 µg/mL. Further, the “activity of combination against S. aureus” value with S. aureus [4] (10 μg/ml of amide-terminated Magainin II and 0.03 μg/ml of erythromycin) is “effective biological activity”. In addition, in the experiment on S. aureus [4] (S. aureus, substance alone), the “concentration required for effective biological activity” value was “greater than 250 μg/ml”. Besides, the “MIC With Added Antibiotic Bacitracin” value in the experiment with S. aureus [5] is 32 µg/mL. Moreover, in the experiment with S. aureus [5], the “MIC With Added Antibiotic Gentamicin” value is 4 µg/mL. In the experiment on S. aureus [5], the “MIC With Added Antibiotic Tobramycin” value was found to be 32 µg/mL.

Turning to “GFASFLGKALKAALKIGANLLGGTPQQ [Peptide Z-50, structure number (8) of the CPF peptides]”, the “MIC Peptide alone” value in the experiment with E. coli [1] (Example 2, Table 2) turned out to be 16 µg/mL; in the experiment on E. coli [1] (Example 4, Table 4) it was 32 µg/mL; in the experiment with E. coli [1] (Example 5, Table 5), 32 µg/mL; in the experiment with S. aureus [5] it was 16 µg/mL; in the experiment on P. aeruginosa [6] (setting [9]), 32 µg/mL; in the experiment with P. aeruginosa [6] (setting [10]) it was 64 µg/mL. The “MIC Peptide and Ampicillin” value with E. coli [1] turned out to be 8 µg/mL. For the same compound, the “MIC Peptide with Aztreonam” value with E. coli [1] was 8 µg/mL; in the experiment on P. aeruginosa [6] (P. aeruginosa), 32 µg/mL. Further, the “MIC Peptide with Bacitracin” value with E. coli [1] worked out at 16 µg/mL; with P. aeruginosa [6] (P. aeruginosa), 4 µg/mL. The “Minimal Inhibitory Concentration” value in the experiment with P. aeruginosa [2] (setting [7]) was under 0.5 µg/mL; in the experiment on P. aeruginosa [2] (setting [8]), under 5.0 µg/mL; in the experiment on E. coli [3] (setting [7]), under 0.5 µg/mL; in the experiment with E. coli [3] (setting [8]) it was under 5.0 µg/mL; with K. pneumoniae (setting [7]), under 0.5 µg/mL; in the experiment on K. pneumoniae (setting [8]), under 0.5 µg/mL. Besides, in the experiment on S. aureus [5], the “MIC With Added Antibiotic Bacitracin” value came to 16 µg/mL. In addition, the “MIC With Added Antibiotic Gentamicin” value in the experiment on S. aureus [5] came to 2 µg/mL. For the same compound, the “MIC With Added Antibiotic Tobramycin” value in the experiment on S. aureus [5] stood at 8 µg/mL.

As to `C[C@H]1[C@H](NC(=O)/C(=N\OC(C)(C)C(=O)O)c2csc(N)n2)C(=O)N1S(=O)(=O)O` [aztreonam, reference compound], the MIC of antibiotic with E. coli [1] was found to be 2 µg/mL; with P. aeruginosa [6], 8 µg/mL.

As for `NC[C@H]1O[C@H](O[C@H]2[C@H](O)[C@@H](O[C@H]3O[C@H](CO)[C@@H](O)[C@H](N)[C@H]3O)[C@H](N)C[C@@H]2N)[C@H](N)C[C@@H]1O` [tobramycin, Tobramycin, reference compound], the MIC of antibiotic in the experiment with E. coli [1] was 2 µg/mL; in the experiment on S. aureus [5], over 256 µg/mL; with P. aeruginosa [6], 128 µg/mL.

Consider GIGKFLHSAKKFGKAFVGEIMNS [Magainin II], for which the “MIC Peptide alone” value was 32 µg/mL in the experiment with E. coli [1] (Example 2, Table 2); 64 µg/mL in the experiment on E. coli [1] (Example 4, Table 4); 64 µg/mL in the experiment with E. coli [1] (Example 5, Table 5); 256 µg/mL in the experiment with S. aureus [5]; 256 µg/mL in the experiment with P. aeruginosa [6] (setting [9]); 256 µg/mL in the experiment on P. aeruginosa [6] (setting [10]). Besides, in the experiment with E. coli [1], the “MIC Peptide and Ampicillin” value worked out at 16 µg/mL. Besides, the “MIC Peptide with Aztreonam” value was 16 µg/mL in the experiment with E. coli [1] and 128 µg/mL in the experiment on P. aeruginosa [6] (P. aeruginosa). The “MIC Peptide with Bacitracin” value with E. coli [1] was 8 µg/mL; in the experiment with P. aeruginosa [6] (P. aeruginosa), 16 µg/mL. In the experiment on E. coli [1], the “MIC Peptide and Benzyl penicillin” value was found to be 32 µg/mL. Moreover, the “MIC With Added Antibiotic Bacitracin” value with S. aureus [5] stood at 128 µg/mL. Also, in the experiment on S. aureus [5], the “MIC With Added Antibiotic Gentamicin” value stood at 4 µg/mL. In addition, the “MIC With Added Antibiotic Tobramycin” value in the experiment on S. aureus [5] was determined as 32 µg/mL.

Regarding bacitracin [reference compound], the MIC of antibiotic in the experiment with E. coli [1] was 64 µg/mL; in the experiment with S. aureus [5] it was 2 µg/mL; with P. aeruginosa [6], over 256 µg/mL.

For the compound `CC1(C)S[C@@H]2[C@H](NC(=O)[C@H](N)c3ccccc3)C(=O)N2[C@H]1C(=O)O` [ampicillin, alpha-amino-benzyl penicillin, reference compound], in the experiment with E. coli [1], the MIC of antibiotic was determined as 4 µg/mL.

Regarding `CC[C@H]1OC(=O)[C@H](C)[C@@H](O[C@H]2C[C@@](C)(OC)[C@@H](O)[C@H](C)O2)[C@H](C)[C@@H](O[C@@H]2O[C@H](C)C[C@H](N(C)C)[C@H]2O)[C@](C)(O)C[C@@H](C)C(=O)[C@H](C)[C@@H](O)[C@]1(C)O` [Erythromycin, reference compound], the “Minimal Inhibitory Concentration” value in the experiment with P. aeruginosa [2] (erythromycin alone), in the experiment with E. coli [3] (erythromycin alone) and with K. pneumoniae (erythromycin alone) was over 100 µg/mL throughout.

`CC1(C)S[C@@H]2[C@H](NC(=O)Cc3ccccc3)C(=O)N2[C@H]1C(=O)O` [benzyl penicillin, reference compound]: the MIC of antibiotic in the experiment on E. coli [1] was 64 µg/mL.

As for gentamicin [reference compound], the results for the MIC of antibiotic in the experiment on E. coli [1], with S. aureus [5] and in the experiment with P. aeruginosa [6] were 2 µg/mL, 256 µg/mL and over 256 µg/mL, respectively.
